Data set [1] is described as follows: Lipophilicity, logP of the compound. To be noted: octanol/water.
A short description of data set [2]: Dissociation constant, pKa of the compound. Type of data set: physicochemical.
Data set [3] is described as follows: Lipophilicity, logD of compound at pH 7. To be noted: buffer.
The nature of data set [4]: Adrenal to liver ratio in rat measured at 60 mins. To be noted: 1 h. Type of data set: ADME, tissue-based.
The target in data set [5] is Kappa-type opioid receptor (Homo sapiens, UniProt P41145). The data set can be described thus: Binding affinity to kappa opioid receptor (unknown origin) assessed as inhibition constant.
Sequence of Kappa-type opioid receptor (P41145 whole entry): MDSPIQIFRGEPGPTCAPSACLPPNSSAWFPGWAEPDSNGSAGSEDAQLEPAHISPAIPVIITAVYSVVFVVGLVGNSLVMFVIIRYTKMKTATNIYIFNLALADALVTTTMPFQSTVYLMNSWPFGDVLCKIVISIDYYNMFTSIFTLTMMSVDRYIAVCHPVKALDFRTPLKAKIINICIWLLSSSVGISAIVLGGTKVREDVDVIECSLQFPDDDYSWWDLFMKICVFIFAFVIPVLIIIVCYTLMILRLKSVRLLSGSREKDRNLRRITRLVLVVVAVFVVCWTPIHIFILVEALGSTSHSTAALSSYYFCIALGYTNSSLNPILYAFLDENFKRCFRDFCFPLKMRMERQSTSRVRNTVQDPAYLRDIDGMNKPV
Data set [6] in a line: Selectivity ratio of Ki for kappa opioid receptor (unknown origin) for Ki for mu opioid receptor (unknown origin).
The nature of data set [7]: Selectivity ratio of Ki for kappa opioid receptor (unknown origin) for Ki for delta opioid receptor (unknown origin).
The target of data set [8] is Neuronal acetylcholine receptor; alpha6/beta2 (Homo sapiens, UniProt P17787+Q15825). Briefly: Binding affinity to nACh alpha6beta2 receptor (unknown origin) assessed as inhibition constant. Type of data set: protein-complex assay.
Sequence of Neuronal acetylcholine receptor; alpha6/beta2 (P17787 whole entry): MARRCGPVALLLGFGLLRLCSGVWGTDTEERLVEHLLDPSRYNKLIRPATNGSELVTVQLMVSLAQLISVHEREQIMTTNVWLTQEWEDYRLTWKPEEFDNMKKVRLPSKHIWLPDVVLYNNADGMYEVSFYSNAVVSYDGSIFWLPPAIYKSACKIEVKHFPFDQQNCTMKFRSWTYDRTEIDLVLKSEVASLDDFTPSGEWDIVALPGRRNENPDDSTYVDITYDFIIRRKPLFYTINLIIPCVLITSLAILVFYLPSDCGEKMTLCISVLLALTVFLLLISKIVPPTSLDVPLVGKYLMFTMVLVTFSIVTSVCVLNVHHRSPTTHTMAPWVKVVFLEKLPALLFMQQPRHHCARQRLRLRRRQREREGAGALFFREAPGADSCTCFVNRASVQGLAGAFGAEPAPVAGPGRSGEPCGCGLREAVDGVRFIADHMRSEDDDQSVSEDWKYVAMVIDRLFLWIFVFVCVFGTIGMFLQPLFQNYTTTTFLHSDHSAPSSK
Sequence of Neuronal acetylcholine receptor; alpha6/beta2 (Q15825 whole entry): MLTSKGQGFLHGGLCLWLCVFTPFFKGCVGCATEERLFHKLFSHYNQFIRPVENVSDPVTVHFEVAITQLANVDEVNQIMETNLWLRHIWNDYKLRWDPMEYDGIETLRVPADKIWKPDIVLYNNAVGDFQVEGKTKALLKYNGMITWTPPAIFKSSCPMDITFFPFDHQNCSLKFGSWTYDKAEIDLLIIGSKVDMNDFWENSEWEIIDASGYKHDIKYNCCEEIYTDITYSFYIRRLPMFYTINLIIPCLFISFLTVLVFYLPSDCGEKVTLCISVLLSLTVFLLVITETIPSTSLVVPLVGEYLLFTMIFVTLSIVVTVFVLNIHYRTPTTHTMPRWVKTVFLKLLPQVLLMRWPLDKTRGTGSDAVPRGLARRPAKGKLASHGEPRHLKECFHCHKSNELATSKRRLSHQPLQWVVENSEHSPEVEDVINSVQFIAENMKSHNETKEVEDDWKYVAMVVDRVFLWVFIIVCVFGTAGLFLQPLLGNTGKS
The nature of data set [9]: Lipophilicity, logD of compound at pH 7.4. Type of data set: physicochemical. To be noted: buffer.
For data set [10], the target named is Glutamate NMDA receptor; GRIN1/GRIN2A (Homo sapiens, UniProt Q05586+Q12879). The data set can be described thus: Binding affinity to GluN1/GluN2A receptor (unknown origin) assessed as inhibition constant. Type of data set: protein-complex assay.
Sequence of Glutamate NMDA receptor; GRIN1/GRIN2A (Q12879 whole entry, other chains not shown): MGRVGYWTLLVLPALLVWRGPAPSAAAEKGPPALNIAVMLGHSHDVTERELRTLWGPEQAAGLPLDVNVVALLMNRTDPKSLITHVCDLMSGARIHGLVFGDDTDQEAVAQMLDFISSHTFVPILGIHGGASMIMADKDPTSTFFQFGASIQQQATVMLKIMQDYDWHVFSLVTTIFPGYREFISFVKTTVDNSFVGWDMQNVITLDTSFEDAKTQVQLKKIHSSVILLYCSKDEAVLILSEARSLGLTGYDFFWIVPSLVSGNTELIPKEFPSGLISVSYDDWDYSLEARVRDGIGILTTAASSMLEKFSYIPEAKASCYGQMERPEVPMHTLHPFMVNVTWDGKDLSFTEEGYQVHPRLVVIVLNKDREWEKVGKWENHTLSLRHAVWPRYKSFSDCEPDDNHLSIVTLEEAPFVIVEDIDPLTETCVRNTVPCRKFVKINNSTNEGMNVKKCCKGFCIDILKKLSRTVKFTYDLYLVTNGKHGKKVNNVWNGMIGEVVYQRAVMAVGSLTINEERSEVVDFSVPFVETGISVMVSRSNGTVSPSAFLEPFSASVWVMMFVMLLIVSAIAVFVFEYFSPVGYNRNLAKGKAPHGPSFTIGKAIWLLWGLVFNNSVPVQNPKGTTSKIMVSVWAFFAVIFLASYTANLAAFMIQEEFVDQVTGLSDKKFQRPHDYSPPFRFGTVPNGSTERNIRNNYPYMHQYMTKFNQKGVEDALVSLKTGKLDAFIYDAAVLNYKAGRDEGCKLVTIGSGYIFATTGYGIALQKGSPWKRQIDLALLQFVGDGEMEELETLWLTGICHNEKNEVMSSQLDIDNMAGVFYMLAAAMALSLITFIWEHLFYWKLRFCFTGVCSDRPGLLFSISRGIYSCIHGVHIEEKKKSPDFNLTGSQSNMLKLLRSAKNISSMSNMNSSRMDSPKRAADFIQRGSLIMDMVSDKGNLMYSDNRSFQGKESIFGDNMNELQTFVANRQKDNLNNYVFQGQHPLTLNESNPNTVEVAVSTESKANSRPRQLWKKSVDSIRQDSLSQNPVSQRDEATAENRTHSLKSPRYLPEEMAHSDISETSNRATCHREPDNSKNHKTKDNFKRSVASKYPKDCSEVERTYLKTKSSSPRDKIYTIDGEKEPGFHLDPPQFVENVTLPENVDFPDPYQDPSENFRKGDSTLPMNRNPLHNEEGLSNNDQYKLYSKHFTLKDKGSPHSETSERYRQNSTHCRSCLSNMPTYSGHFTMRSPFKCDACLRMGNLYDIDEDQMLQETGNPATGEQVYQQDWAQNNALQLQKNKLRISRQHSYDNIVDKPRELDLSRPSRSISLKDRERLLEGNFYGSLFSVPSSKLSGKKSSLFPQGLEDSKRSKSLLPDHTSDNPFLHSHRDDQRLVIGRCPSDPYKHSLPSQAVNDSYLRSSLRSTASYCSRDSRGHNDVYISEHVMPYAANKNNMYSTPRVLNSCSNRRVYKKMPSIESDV
Data set [11] can be described thus: Half life in rhesus monkey. Type of data set: ADME, Macaca mulatta. To be noted: in vivo.
Data set [12] can be described thus: Drug distribution in rhesus monkey temporal cortex assessed as dissociation constant. Type of data set: ADME, tissue-based, Macaca mulatta.
The nature of data set [13]: Drug distribution in rhesus monkey temporal cortex assessed as maximum binding. Type of data set: ADME, tissue-based, Macaca mulatta.
A short description of data set [14]: Drug distribution in rhesus monkey striatum assessed as maximum binding. Type of data set: ADME, tissue-based, Macaca mulatta.

The values below come from ChEMBL document CHEMBL5338767, “A Molecular Toolbox of Positron Emission Tomography Tracers for General Anesthesia Mechanism Research” (J Med Chem, 2023).

Each structure is given as a SMILES string.

The term logP denotes a log measure of how a compound divides between an organic and an aqueous phase. By pKa is commonly meant the negative logarithm of the acid dissociation constant. Broadly, the logD is lipophilicity at a set pH, counting ionised and neutral species. A word on the Ki: it is the dissociation constant of the complex between target and ligand, obtained from inhibition or displacement. One may read the half-life as the time in which the quantity being followed falls by half. In general, Kd refers to the free concentration of one partner at which half of the binding sites on the other are occupied at equilibrium, for simple one-to-one binding.

As for `CCOC(=O)c1ncn2c1CN([11CH3])C(=O)c1cc(F)ccc1-2`, the logP in data set [1] is recorded as 1.11. In data set [2], this compound showed a pKa of 0.86.

Take `C[C@H](c1ccccc1)n1cncc1C(=O)OCC[18F]`: in [1], the log partition coefficient (logP) was 1.69. Also, the logD in [3] is recorded as 2.99. The pKa in [2] was determined as 3.83. Moreover, the Ratio in data set [4] is 14.48.

Regarding `CCN(CCF)C[C@@H]1CN(C(=O)CO[11CH3])CCN1C(=O)Cc1ccc(C)c(C)c1`, the logP in data set [1] was determined as 1.53. The compound further registered a pKa in [2] of 7.51.

Consider `CCN(CCF)C[C@@H]1CN(C(=O)COC)CCN1C(=O)Cc1ccc(C)c(C)c1`, for which the Ki in data set [5] was 0.43 nM. Further, the Ratio Ki in [6] is 17; in [7], 323.

The compound `CN1C2CCCC1C(c1cncc(-c3cccnc3[18F])c1)C2` (configuration not stated) registered a logP in data set [1] of 2.47. This compound also returned a pKa in data set [2] of 9.18. In data set [8], the Ki was 0.06 nM.

With `[11CH3]OCc1scnc1N1CCN(C[C@H]2COc3ccccc3O2)CC1`, in [1], the logP was 2.65. Also, the logD in data set [3] was found to be 2.02. The compound also gave a pKa in data set [2] of 7.21.

In the case of `CN1CC=C[C@H]1COc1cccnc1[18F]`, the logP in [1] was 1.21. Further, in data set [3], the logD turned out to be 0.3. The pKa in [2] stood at 8.09. For the same compound, the Ki in data set [8] worked out at 0.5 nM.

In [1], `Oc1ccc2c(c1)CCN(CCCCc1ccccc1[18F])C[C@@H]2O` had a logP of 4.03. Besides, the logD stood at 2.07 in data set [3] and 2.2 in [9]. Also, the pKa in data set [2] was 8.68.

For the compound `CC(C)C[C@H](N)[11C](=O)O`, the logP in [1] is -0.29. Besides, the logD in data set [3] was -1.7. The compound also displayed a pKa in data set [2] of 10.2.

With `FC(F)OC(F)C(F)(F)F` (configuration not stated), the logP in data set [1] turned out to be 2.16. Moreover, the logD in data set [3] was 1.88.

As to `[11CH3]n1c2c(c3ccccc31)C[C@@]1(O)[C@H]3Cc4ccc(O)c5c4[C@@]1(CCN3CC1CC1)[C@H]2O5`, in data set [1], the logP was found to be 3.31. This compound also yielded a pKa in [2] of 14.2.

Turning to `CC(OC(F)F)C(F)(F)F` (configuration not stated), the logP in [1] is 2.47. In [3], this compound yielded a logD of 2.12.

In the case of `Cc1cn([C@H]2C[C@H]([18F])[C@@H](CO)O2)c(=O)[nH]c1=O` [ALOVUDINE F-18], the logP in data set [1] is -0.41. For the same compound, the logD in [3] was -0.2. In data set [2], this compound displayed a pKa of 13.7.

Consider `[18F]c1ccc(C2CC3CCCC2N3)cn1` (single isomer, unassigned; (-)), for which the logP in [1] worked out at 1.75. For the same compound, in [3], the logD was -0.76. The pKa in data set [2] came to 9.28.

Compound `[18F]c1ncccc1OC[C@H]1CCN1` registered a pKa in data set [2] of 8.95.

For `CN(C)c1cccc2c(S(=O)(=O)N/N=C/c3ccc([18F])cc3)cccc12`, in [1], the logP is 4.94. In addition, in [3], the log distribution coefficient (logD) was found to be 3.92.

With `CCN(CC)C[C@@H]1CN(C(=O)COC)CCN1C(=O)Cc1ccc(C)c(C)c1`, the Ki in [5] amounted to 0.28 nM.

As for `FC(F)([18F])C(Cl)Br` (configuration not stated), the logP in [1] turned out to be 2.28. The compound also had a logD in data set [3] of 2.33.

For `CCCc1cc(Cl)cc2[nH]c(=O)c(-c3cccc(O[11CH3])c3)c(O)c12`, the logP in data set [1] was 3.78. In data set [2], this compound yielded a pKa of 9.06. In addition, the Ki in data set [10] is 7200 nM.

The compound `[18F]CCCc1cncc(OC[C@@H]2C=CCN2)c1` came in with a logP in data set [1] of 1.42. In data set [3], this compound came in with a logD of 0.71. This compound also displayed a pKa in data set [2] of 8.21. For the same compound, in data set [8], the Ki is 0.36 nM.

In turn, `[11CH3]OC(=O)c1cncn1Cc1ccccc1` gave a logP in data set [1] of 1.18. This compound came in with a logD in data set [3] of 2.19. In addition, the pKa in data set [2] was found to be 4.08.

With `NC(=O)c1ccc(Oc2ccc(CN3CCC[C@H]3c3cccnc3)cc2)c([18F])c1`, the logP in data set [1] was found to be 3.27. This compound returned a logD in [3] of 2.07. The same compound had a pKa in [2] of 8.45.

`CC(=O)N(Cc1ccccc1OCC[18F])c1ccccc1Oc1ccccc1` gave a logP in data set [1] of 4.51.

Consider `N#Cc1cc([18F])cc(C#Cc2ccccn2)c1`, for which, in data set [1], the lipophilicity (logP) was determined as 3.25. Further, the logD in [3] was 3.38. In data set [2], this compound came in with a pKa of 1.89.

As for `CN([11CH3])Cc1ccccc1Sc1ccc(C#N)cc1N`, the logP in [1] amounted to 3.31. The logD in data set [3] was 0.89. Also, the pKa in data set [2] was 9.43.

Compound `C[C@@H](C[11CH3])CCc1cnc(Cl)c(/C=C/c2ccncc2)c1` gave a logP in data set [1] of 4.94. In addition, in [8], the Ki came out at 0.077 nM.

`FCOC(C(F)(F)F)C(F)(F)[18F]` (configuration not stated) returned a lipophilicity (logP) in data set [1] of 2.24. This compound also came in with a logD in data set [3] of 2.5.

Turning to `C[11CH2]OC(=O)c1cncn1[C@H](C)c1ccccc1`, the logP in data set [1] worked out at 1.83. The logD in data set [3] is 3.05. The compound also yielded a pKa in data set [2] of 4.23.

As for `CN1C2CCCC1C(c1cncc(-c3cccc([18F])n3)c1)C2` (configuration not stated), in data set [1], the logP amounted to 2.89. Also, in data set [2], the pKa turned out to be 9.24. For the same compound, the Ki in data set [8] worked out at 0.95 nM.

As for `COc1cnc(OCc2cn(-c3ccc([18F])c(C)c3)nn2)nc1`, the logP in data set [1] is 2.76. This compound also yielded a logD in [3] of 1.55. For the same compound, the pKa in [2] was determined as 0.73.

As to `[18F]c1ccc2cnn(N=C3NCCN3)c2c1`, in data set [1], the logP came out at 1.11. In data set [3], this compound had a logD of 0.09. The compound further gave a pKa in data set [2] of 7.94.

Consider `[18F]CCCc1cncc(OC[C@@H]2CCN2)c1`, for which, in [1], the logP amounted to 0.86. For the same compound, the logD in [3] was -1.44. Besides, the pKa in [2] was found to be 9.09. In addition, the Ki in [8] was 0.67 nM.

For `O=S1(=O)c2cc(N3CCN4CCC3CC4)ccc2-c2cccc([18F])c21`, the logP in [1] is 2.71. For the same compound, in [3], the logD is 1.72. Further, the pKa in data set [2] is 8.68.

Turning to `CCN(CC)C[C@@H]1CN(C(=O)CO[11CH3])CCN1C(=O)Cc1ccc(C)c(C)c1`, the logP in data set [1] is 1.67. The pKa in data set [2] was 8.6. Further, the Ki in data set [5] was 0.28 nM.

In [1], `CN([11CH3])[C@]1(c2ccccc2Cl)CCCCC1=O` came in with a logP of 2.84. The logD in [3] came out at 2.93. The half-life in data set [11] was > 15 min. The results for the Kd in data set [12], in data set [13] and in data set [14] were 7000 nM, 4000 nM and 14000 nM, respectively. In addition, the pKa in data set [2] amounted to 6.92.

On to `[11CH3]C(=O)c1ccc2c(c1)CCN(CCCCc1ccccc1)CC2O` (configuration not stated), for which the logP in [1] was found to be 4.14. The same compound registered a logD in [3] of 2.94. Also, the pKa in data set [2] is 8.78.

Regarding `N[C@H](C[C@H]1CC(C(=O)O)=NN1c1ccc(CCCF)cc1)C(=O)O`, the Ki in [10] was 52 nM.

In [1], `C[C@H](c1ccc(Cl)cc1)n1cncc1C(=O)OCC[18F]` came in with a logP of 2.25. The same compound came in with a logD in [3] of 3.76. The compound further showed a pKa in data set [2] of 3.76.

Compound `[11CH3]Oc1cccc(-c2c(O)c3c(I)cc(Cl)cc3[nH]c2=O)c1` returned a logP in data set [1] of 3.81. In [3], this compound registered a logD of 1.91. The pKa in data set [2] is 8.83. Further, the Ki in data set [10] amounted to 10300 nM.

For `CCOC(=O)c1ncn2c1CN(C)C(=O)c1cc([18F])ccc1-2`, in [1], the logP was determined as 1.11. In [2], this compound displayed a pKa of 0.86.
